BindingDB's records for PubMed 32066009 (Hefei University of Technology, 2020)

Columns and labels:
Prothrombin = Prothrombin (Homo sapiens, UniProt P00734); experiment: Inhibition of thrombin (unknown origin)
Coagulation factor X = Coagulation factor X (Homo sapiens, UniProt P00742); experiment: Inhibition of human fXA by fluorescence based analysis
Coagulation factor XII = biological target: T1, Coagulation factor XII (Homo sapiens, UniProt P00748); experiment: Inhibition of human fXIIA by fluorescence based analysis
T1 sequence (P00748 whole entry): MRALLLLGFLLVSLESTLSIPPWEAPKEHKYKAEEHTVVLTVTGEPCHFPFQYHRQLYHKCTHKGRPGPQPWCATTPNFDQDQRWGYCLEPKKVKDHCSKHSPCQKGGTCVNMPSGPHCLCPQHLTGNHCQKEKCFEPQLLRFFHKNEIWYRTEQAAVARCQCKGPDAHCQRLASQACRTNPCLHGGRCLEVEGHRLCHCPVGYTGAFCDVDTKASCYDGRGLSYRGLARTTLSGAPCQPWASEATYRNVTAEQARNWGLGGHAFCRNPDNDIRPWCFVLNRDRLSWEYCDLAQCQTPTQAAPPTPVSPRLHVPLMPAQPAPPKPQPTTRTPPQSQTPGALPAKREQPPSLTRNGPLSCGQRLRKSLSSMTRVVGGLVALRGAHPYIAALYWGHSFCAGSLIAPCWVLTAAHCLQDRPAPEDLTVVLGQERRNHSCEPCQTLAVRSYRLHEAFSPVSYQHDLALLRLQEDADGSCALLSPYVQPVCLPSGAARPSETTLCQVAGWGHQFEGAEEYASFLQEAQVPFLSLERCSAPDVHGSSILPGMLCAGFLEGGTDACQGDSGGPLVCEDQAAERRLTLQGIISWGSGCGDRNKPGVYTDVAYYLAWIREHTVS

Sequence of Coagulation factor X (P00742 41-179 limits assumed): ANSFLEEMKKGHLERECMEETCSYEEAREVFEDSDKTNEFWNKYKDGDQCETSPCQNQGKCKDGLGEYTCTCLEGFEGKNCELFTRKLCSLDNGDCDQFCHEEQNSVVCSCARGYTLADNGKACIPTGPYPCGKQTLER
Sequence of Coagulation factor X (P00742 235-488 limits assumed): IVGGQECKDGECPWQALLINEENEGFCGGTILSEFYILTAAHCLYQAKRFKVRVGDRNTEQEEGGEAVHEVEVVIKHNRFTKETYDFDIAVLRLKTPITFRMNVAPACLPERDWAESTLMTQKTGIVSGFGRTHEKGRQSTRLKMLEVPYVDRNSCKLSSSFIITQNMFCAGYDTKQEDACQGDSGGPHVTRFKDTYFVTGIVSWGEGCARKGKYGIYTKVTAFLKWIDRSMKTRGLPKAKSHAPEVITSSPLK

Compound	IC50 (Prothrombin) [µM]	IC50 (Coagulation factor X) [µM]	IC50 (Coagulation factor XII) [µM]
CC(=O)c1ccc(NC(=O)[C@H](Cc2ccccc2)NC(=O)C2CCC(CN)CC2)cc1 (some centres undefined)	> 1000	–	–
CCOc1ccc(C[C@@H](NC(=O)c2ccccc2)C(=O)N[C@@H](Cc2ccccc2)C(=O)NCc2ccc(CN)cc2)cc1 [US9234000, 3]	–	> 10	> 10
NCC1CCC(C(=O)N[C@@H](Cc2ccccc2)C(=O)Nc2ccc(CC(=O)O)cc2)CC1 (some centres undefined)	> 1000	–	–
